Laboratory results taken from publication PMC3117834 (PLoS ONE, 2011).

How the values were obtained:
Assay type in all cases: biochemical
[1] = biological target: T1, Pbs2 (Saccharomyces cerevisiae, UniProt P08018, M435A); experiment: […] kinase assay, Hog1 phosphorylation, autoradiography
T1 construct: GST fusion (pGEX-4T1) from E. coli DH5alpha
T1 sequence (P08018 1-668 M435A): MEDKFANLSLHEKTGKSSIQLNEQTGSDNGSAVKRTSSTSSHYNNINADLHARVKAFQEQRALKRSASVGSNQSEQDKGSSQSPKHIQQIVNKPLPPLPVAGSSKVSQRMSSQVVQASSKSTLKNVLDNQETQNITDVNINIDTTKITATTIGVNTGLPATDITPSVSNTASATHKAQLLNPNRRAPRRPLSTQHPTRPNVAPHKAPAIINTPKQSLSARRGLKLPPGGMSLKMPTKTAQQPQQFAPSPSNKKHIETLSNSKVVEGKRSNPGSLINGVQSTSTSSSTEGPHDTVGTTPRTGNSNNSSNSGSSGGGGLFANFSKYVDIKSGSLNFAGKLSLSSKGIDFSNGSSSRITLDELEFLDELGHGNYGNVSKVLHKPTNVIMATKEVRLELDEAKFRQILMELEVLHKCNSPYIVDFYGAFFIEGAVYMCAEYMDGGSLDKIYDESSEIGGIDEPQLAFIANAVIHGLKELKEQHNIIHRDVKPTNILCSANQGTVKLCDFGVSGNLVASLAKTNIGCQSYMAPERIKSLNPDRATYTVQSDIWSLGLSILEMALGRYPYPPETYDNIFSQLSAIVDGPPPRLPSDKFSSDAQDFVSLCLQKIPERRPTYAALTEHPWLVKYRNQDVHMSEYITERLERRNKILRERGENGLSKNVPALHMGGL

[2] = biological target: T2, Hog1 (Saccharomyces cerevisiae, UniProt P32485, T100G); experiment: […] kinase assay, Sic1 phosphorylation, autoradiography
T2 construct: pGEX-4T1 E. coli version also made
T2 sequence (P32485 2-435 T100G): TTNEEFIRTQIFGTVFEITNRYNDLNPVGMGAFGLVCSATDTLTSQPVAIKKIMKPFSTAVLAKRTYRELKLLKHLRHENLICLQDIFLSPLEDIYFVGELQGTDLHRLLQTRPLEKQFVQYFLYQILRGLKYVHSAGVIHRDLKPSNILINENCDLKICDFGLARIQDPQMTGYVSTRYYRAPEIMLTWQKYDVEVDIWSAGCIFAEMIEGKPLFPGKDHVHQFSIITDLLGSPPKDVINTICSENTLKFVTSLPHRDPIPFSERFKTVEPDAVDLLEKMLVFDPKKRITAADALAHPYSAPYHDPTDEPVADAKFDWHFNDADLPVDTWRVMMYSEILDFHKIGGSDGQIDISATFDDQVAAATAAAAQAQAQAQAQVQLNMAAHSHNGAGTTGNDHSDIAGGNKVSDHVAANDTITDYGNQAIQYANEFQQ

[3] = biological target: T2, Hog1; experiment: as above; remark: listed apart in the source
[4] = biological target: T1, Pbs2; experiment: […] kinase assay, Hog1 phosphorylation, autoradiography; details: [gamma-32P]-phenethyl-ATP as phosphodonor; GST-Hog1 substrate; pH 8.0; 30 °C
[5] = biological target: T2, Hog1; experiment: […] kinase assay, Sic1 phosphorylation, autoradiography; details: in vitro-activated Hog1as
[6] = biological target: T3, Hog1 (Saccharomyces cerevisiae, UniProt P32485); experiment: as above
T3 construct: pGEX-4T1 E. coli version also made
T3 sequence (P32485 2-435): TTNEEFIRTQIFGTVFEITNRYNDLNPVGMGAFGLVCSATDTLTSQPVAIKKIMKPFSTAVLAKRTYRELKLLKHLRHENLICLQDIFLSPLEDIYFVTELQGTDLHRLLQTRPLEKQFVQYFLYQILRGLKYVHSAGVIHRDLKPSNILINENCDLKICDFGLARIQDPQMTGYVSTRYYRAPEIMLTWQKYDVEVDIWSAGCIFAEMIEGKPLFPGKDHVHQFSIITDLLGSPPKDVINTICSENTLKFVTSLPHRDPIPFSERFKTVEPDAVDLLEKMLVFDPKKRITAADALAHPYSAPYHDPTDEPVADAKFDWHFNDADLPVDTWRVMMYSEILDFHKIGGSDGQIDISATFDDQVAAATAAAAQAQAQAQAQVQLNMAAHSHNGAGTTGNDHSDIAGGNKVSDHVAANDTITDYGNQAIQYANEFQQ

SMILES: CC(C)(C)n1nc(Cc2cccc3ccccc23)c2c(N)ncnc21 [compound 9, 1-NM-PP1]
- IC50 [1]: 7.54 ± 0.25 nM
- IC50 [2]: 9.47 ± 0.38 nM

SMILES: CC(C)n1nc(C#Cc2ccc(Cl)cc2)c2c(N)ncnc21 [6c, 3-((4-chlorophenyl)ethynyl)-1-isopropyl-1H-pyrazolo[3,4-d]pyrimidin-4-amine]
- inhibition at 5 µM [3]: > 89%

SMILES: CC(C)n1nc(C#Cc2ccc(F)cc2)c2c(N)ncnc21 [6b, 3-((4-fluorophenyl)ethynyl)-1-isopropyl-1H-pyrazolo[3,4-d]pyrimidin-4-amine]
- inhibition at 5 µM [3]: > 89%
- % inhibition at 5 μM [4]: Pbs2as was inhibited by all the compounds in vitro

SMILES: Nc1ncnc2c1c(C#Cc1ccccc1)nn2CCO [7a, 2-(4-amino-3-(phenylethynyl)-1H-pyrazolo[3,4-d]pyrimidin-1-yl)etanol]
- 32P kinase assay, Sic1 phosphorylation, autoradiography [5]: in vitro these compounds were able to inhibit Hog1as as efficiently as 6a

SMILES: CC(C)n1nc(-c2ccc(F)cc2)c2c(N)ncnc21 [5b, 3-(4-Fluorophenyl)-1-isopropyl-1H-pyrazolo[3,4-d]pyrimidin-4-amine]
- inhibition at 5 µM [6]: 94%

SMILES: CC(C)n1nc(C#Cc2ccccc2)c2c(N)ncnc21 [6a, 1-Isopropyl-3-(phenylethynyl)-1H-pyrazolo[3,4-d]pyrimidin-4-amine]
- IC50 [1]: 4.02 ± 0.26 nM
- IC50 [2]: 37 ± 2.72 nM

SMILES: Nc1ncnc2c1c(C#Cc1ccccc1)nn2CC(O)CO (stereo not shown) [7b, 3-(4-amino-3-(phenylethynyl)-1H-pyrazolo[3,4-d]pyrimidin-1-yl)propane-1,2-diol]
- 32P kinase assay, Sic1 phosphorylation, autoradiography [5]: in vitro these compounds were able to inhibit Hog1as as efficiently as 6a
